These results are taken from the Kinase Knowledgebase extract (Sharma et al. 2016).

For orientation: IC50 means the concentration that gives 50% inhibition. Higher therefore signals a need for much substance.

In this assay the target is MAPK14 (human) (UniProt Q16539). Briefly: Inhibition of MAPK14 Kinase Activity.
Chain of MAPK14 (human) (Q16539 whole entry, looked up): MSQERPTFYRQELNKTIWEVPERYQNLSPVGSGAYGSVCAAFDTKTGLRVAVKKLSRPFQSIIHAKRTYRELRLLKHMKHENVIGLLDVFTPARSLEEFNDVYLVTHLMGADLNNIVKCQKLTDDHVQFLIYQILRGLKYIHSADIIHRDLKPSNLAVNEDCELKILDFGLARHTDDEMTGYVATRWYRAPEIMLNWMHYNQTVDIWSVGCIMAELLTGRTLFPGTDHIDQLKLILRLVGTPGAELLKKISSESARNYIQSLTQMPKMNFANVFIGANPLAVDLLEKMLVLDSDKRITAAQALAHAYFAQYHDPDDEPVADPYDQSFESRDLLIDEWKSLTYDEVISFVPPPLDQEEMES

The compound `O=C(NC1CCNC1)c1sc2c(ccc(=O)n2-c2ccccc2)c1Nc1ccc(F)cc1F` (stereo unspecified) registered an IC50 of at most 1000 nM. The result for `CCOC(=O)c1sc2c(ccc(=O)n2-c2ccccc2)c1Nc1ccc(C#N)cc1` reads at most 1000 nM; that for `Cc1cccc(Nc2c(C(N)=O)sc3c2ccc(=O)n3-c2ccc(S(C)(=O)=O)cc2)c1`, at most 1000 nM; that for `C=Cc1ccc(-n2c(=O)ccc3c(Nc4ccc(F)cc4F)c(C(=O)OCC)sc32)cc1`, at most 1000 nM.

On to `NC(=O)c1sc2c(ccc(=O)n2-c2ccccc2)c1Nc1c(Cl)cccc1Cl`, for which the IC50 was at most 1000 nM. The same measure for `CCOC(=O)c1sc2c(ccc(=O)n2-c2cccc(C)c2)c1Nc1ccc(F)c(C)c1`: at most 1000 nM.

Turning to `Cc1cccc(Nc2c(C(N)=O)sc3c2ccc(=O)n3-c2ccc(F)cc2)c1`, the IC50 is at most 1000 nM. Regarding `NC(=O)c1sc2c(ccc(=O)n2-c2ccccc2)c1Nc1cccc(O)c1`, the 50% inhibitory concentration (IC50) was at most 1000 nM.

With `NC(=O)c1sc2c(ccc(=O)n2-c2ccccc2[N+](=O)[O-])c1Nc1ccc(F)cc1F`, the IC50 is at most 1000 nM. For the compound `CCOC(=O)c1sc2c(ccc(=O)n2CC2CC2)c1Nc1ccccc1`, the 50% inhibitory concentration (IC50) was at most 1000 nM.

Compound `CCOC(=O)c1sc2c(ccc(=O)n2-c2ccccc2)c1Nc1ccc(OC)c(F)c1` yielded an IC50 of at most 1000 nM. Compound `Cc1cc(=O)n(-c2ccccc2)c2sc(C(N)=O)c(Nc3ccccc3)c12` registered an IC50 of at most 1000 nM.

Consider `CCOC(=O)c1sc2c(ccc(=O)n2-c2ccc(C(O)CO)cc2)c1Nc1ccccc1` (stereo unspecified), for which the concentration for half-maximal inhibition (IC50) is at most 1000 nM.

As for `Cc1cc(F)ccc1Nc1c(C#N)sc2c1ccc(=O)n2-c1ccccc1`, the half-maximal inhibitory concentration (IC50) is at most 1000 nM. With `CCc1cccc(Nc2c(C(N)=O)sc3c2ccc(=O)n3-c2ccccc2)c1`, the half-maximal inhibitory concentration (IC50) was at most 1000 nM. The same measure for `NC(=O)c1sc2c(ccc(=O)n2-c2ccccc2)c1Nc1cccc(Cl)n1`: at most 1000 nM. The result for `Cc1nccn1CCOc1ccc(-n2c(=O)ccc3c(Nc4ccc(F)cc4F)c(C(N)=O)sc32)cc1` reads at most 1000 nM; that for `CCOC(=O)c1sc2c(ccc(=O)n2-c2cccc(C)c2)c1Nc1cccc(C)c1`, at most 1000 nM; that for `NC(=O)c1sc2c(ccc(=O)n2-c2ccccc2)c1Nc1ccccc1OC(F)(F)F`, at most 1000 nM.

On to `Cc1cccc(Nc2c(C(N)=O)sc3c2ccc(=O)n3-c2ccccc2)c1C#N`, for which the half-maximal inhibitory concentration (IC50) is at most 1000 nM.

For the compound `Cc1ccc(Nc2c(C#N)sc3c2ccc(=O)n3CC2CC2)c(C)c1`, the IC50 was at most 1000 nM. The same measure for `CCOC(=O)c1sc2c(ccc(=O)n2-c2ccsc2)c1Nc1ccc(F)c(C)c1`: at most 1000 nM; for `CC(C)(O)CNC(=N)c1sc2c(ccc(=O)n2-c2ccccc2)c1Nc1ccc(F)cc1F`: at most 1000 nM; for `O=C(c1sc2c(ccc(=O)n2-c2ccccc2)c1Nc1ccc(F)cc1F)N1CCCC1`: at most 1000 nM. In turn, `CCN(CC)C(=O)c1sc2c(ccc(=O)n2-c2ccccc2)c1Nc1ccccc1` displayed an IC50 of at most 1000 nM. The result for `CON(C)C(=O)c1sc2c(ccc(=O)n2-c2ccccc2)c1Nc1ccc(F)cc1F` reads at most 1000 nM. The result for `N#Cc1ccccc1Nc1c(C(N)=O)sc2c1ccc(=O)n2-c1ccsc1` reads at most 1000 nM; that for `N#Cc1sc2c(ccc(=O)n2-c2ccccc2)c1Nc1cccc(Cl)n1`, at most 1000 nM; that for `Cc1cc(Nc2c(C(N)=O)sc3c2ccc(=O)n3-c2ccc(F)cc2)ccc1F`, at most 1000 nM.

Compound `CCOC(=O)c1sc2c(ccc(=O)n2-c2ccccc2)c1Nc1cccc(C)c1C#N` registered an IC50 of at most 1000 nM. The result for `CN(C)C(=O)c1sc2c(ccc(=O)n2-c2ccccc2)c1Nc1ccccc1` reads at most 1000 nM; that for `CCOC(=O)c1sc2c(ccc(=O)n2CC2CCCCO2)c1Nc1ccc(F)cc1F` (stereo unspecified), at most 1000 nM; that for `CCOC(=O)c1sc2c(ccc(=O)n2Cc2ccccc2)c1Nc1ccccc1`, at most 1000 nM. As for `N#Cc1ccccc1Nc1c(C(N)=O)sc2c1ccc(=O)n2-c1ccccc1`, the half-maximal inhibitory concentration (IC50) was at most 1000 nM. The result for `CCOC(=O)c1sc2c(ccc(=O)n2-c2ccccc2)c1Nc1ccc(C#N)c(Cl)c1` reads at most 1000 nM; that for `CCOC(=O)c1sc2c(ccc(=O)n2-c2ccccc2)c1Nc1ccc(Cl)cc1`, at most 1000 nM. In the case of `CCOC(=O)c1sc2c(ccc(=O)n2CC2CC2)c1Nc1ccc(F)cc1F`, the half-inhibitory concentration (IC50) was at most 1000 nM. The same measure for `N#Cc1sc2c(ccc(=O)n2-c2ccccc2)c1Nc1c(F)cccc1F`: at most 1000 nM; for `CCOC(=O)c1sc2c(ccc(=O)n2-c2ccccc2)c1Nc1ccccc1`: at most 1000 nM; for `O=c1ccc2c(Nc3cccc(Cl)c3)csc2n1-c1ccccc1`: at most 1000 nM. Regarding `Cc1cccc(Nc2c(C(N)=O)sc3c2ccc(=O)n3-c2ccccc2Cl)c1`, the IC50 is at most 1000 nM.

Regarding `Cc1cc(Nc2c(C(N)=O)sc3c2ccc(=O)n3-c2ccccc2Cl)ccc1F`, the IC50 is at most 1000 nM. The same measure for `CCOC(=O)c1sc2c(ccc(=O)n2-c2ccc(NS(C)(=O)=O)cc2)c1Nc1ccc(F)cc1F`: at most 1000 nM; for `Cc1cc(Nc2c(C#N)sc3c2ccc(=O)n3C2CC2)ccc1F`: at most 1000 nM; for `CCOC(=O)c1sc2c(ccc(=O)n2-c2ccccc2)c1Nc1cccnc1Cl`: at most 1000 nM.

In turn, `NS(=O)(=O)c1sc2c(ccc(=O)n2-c2ccccc2)c1Nc1ccc(F)cc1F` gave an IC50 of at most 1000 nM. The same measure for `NC(=O)c1sc2c(ccc(=O)n2-c2ccccc2)c1Nc1ccccc1Cl`: at most 1000 nM; for `CCN1CCN(C(=O)c2sc3c(ccc(=O)n3-c3ccccc3)c2Nc2ccccc2)CC1`: at most 1000 nM. The same measure for `CCOC(=O)c1sc2c(ccc(=O)n2-c2ccc(F)cc2)c1Nc1ccccc1C#N`: at most 1000 nM; for `O=c1ccc2c(Nc3ccccc3)csc2n1-c1ccccc1`: at most 1000 nM; for `C=Cc1ccc(-n2c(=O)ccc3c(Nc4ccccc4)c(C(N)=O)sc32)cc1`: at most 1000 nM.
